The values that follow come from US20230416245A1, “ADENOSINE ANALOGS FOR THE TREATMENT OF DISEASE” (BIOINTERVENE, INC., priority 2020, published 2023).

pEC50, pKi: −log10 of the molar value.

Experiment [1] concerns the target T1, human adenosine A3 receptor (Homo sapiens (Human), UniProt P0DMS8). The experiment can be described thus: Adenosine receptor binding assay ([125I]-AB-MECA competition). The following applies: inhibition of 0.15 nM [125I]-AB-MECA binding, membranes of cells expressing human A3 receptor; read-out: hA3 Ki: Ki. The source says:
Example 30: Adenosine Receptor Binding Assay
Materials and Reference Compounds: [^125I]-AB-MECA and [^3H]CCPA are both obtained from Amersham Biosciences (Little Chalfont, UK). IB-MECA are obtained from Tocris (Bristol, UK) and N6-cyclopentyl adenosine (CPA) is obtained from Sigma-Alrich (Poole, UK). Cell culture media, G418 and hygromycin are obtained from Invitrogen (Paisley, UK). Fetal calf serum is obtained from Perbio Science (Cheshire, UK). All other reagents are obtained from Fisher Chemicals (Loughborough, UK).
The method followed is that of Yates L, Clark J H, Martin T J, James S, Broadley K J, Kidd E J. Radioligand binding and functional responses of ligands for human recombinant adenosine A3 receptors. Auton Autacoid Pharmacol. 2006; 26(2):191-200. Cells stably transfected with the human adenosine A3 or A1 receptor are grown in Dulbecco's modified Eagles medium with nutrient mixture F12 containing NaHCO3 and Glutamax. Media is supplemented with 10% fetal calf serum, geneticin (G418; 0.67 mg/mL), hygromycin (500 μg/mL) and adenosine deaminase (1 U/mL). Cells are maintained at 37° C. with 5% CO2 in air. Cells are harvested and homogenized in ice-cold Tris buffer [50 mM Tris, 150 mM NaCl, 1 mM ethylenediaminetetraacetic acid (EDTA), pH 7.4] supplemented with the peptidase inhibitors, 4-(2-aminoethyl)benzenesulfonylfluoride (1 mM) and bacitracin (0.1 mg/mL), using a Polytron homogenizer (3×10 s bursts). The homogenate was spun for 10 min (4° C.) at 500 g. The supernatant is retained and the pellet is re-suspended in the buffer, homogenized and spun as above. The combined supernatants are centrifuged for 15 min (4° C.) at 48,000 g. The resultant pellet is re-suspended in the buffer and centrifuged for a second time at 48,000 g. The membrane pellet is then suspended in Tris buffer containing no peptidase inhibitors or adenosine deaminase and stored at −80° C. at a protein concentration of 1 mg/mL.
Binding Assays: Radioligand-binding assays were performed using the adenosine A3 receptor agonist [^125I]-AB-MECA and the A1 receptor agonist [^3H]CCPA. Binding assays were conducted in a total volume of 100 μL containing a 50 mM Tris, pH 7.4 buffer with or without 10 mM MgCl2, 20 μg membranes and either 0.15 nM [^125I]-AB-MECA (for the A3 receptor) or 1 nM [^3H]CCPA (for the A1 receptor). Assays were conducted at room temperature for 60 min (A1 receptor) or 120 min (A3 receptor) and terminated by the addition of 2 ml of ice-cold wash buffer (50 mM Tris, pH 7.4 with or without 10 mM MgCl2) and rapid filtration over 0.03% polyethylenimine-treated Whatman GF/C filters using a Brandel cell harvester (Semat International Ltd., St Albans, UK). Filters were then washed three times with 2 ml of ice-cold buffer. The filter-bound radioactivity were counted using a Compugamma counter (LKB Wallac, Turku, Finland). Competition experiments were performed to investigate the ability of reference compounds and embodiments of the invention to inhibit [^125I]-AB-MECA binding. Non-specific binding were determined using the respective compound at its highest concentration.
Data Analysis: The Kd and Bmax values for binding data were calculated based upon the molar amounts of bound and free [^125I]-AB-MECA. […] IC50 and Ki values and Hill slopes for inhibition of the radioligand binding by the compounds of the invention were calculated from the ligand competition curves using the Excel spreadsheet and the Kd value calculated for either [^125I]-AB-MECA or [^3H]CCPA. The results were expressed as a percent of control specific binding and as a percent inhibition of control specific binding obtained in the presence of the compounds of the invention. The IC50 values (concentration causing a half-maximal inhibition of control specific binding) and Hill coefficients (nH) were determined by non-linear regression analysis of the competition curves generated with mean replicate values using Hill equation curve fitting: […]

For experiment [2], the target named is T1, human adenosine A3 receptor. The experiment in a line: Intracellular cAMP levels (inhibition of forskolin-stimulated cAMP production). Type of experiment: cell-based. The settings on record: for pEC50: CHO cells expressing human adenosine A3 receptors, forskolin 10 μM; for CAMP Efficacy (%): maximal response as percentage of the response produced by 100 nM IB-MECA. The text has this:
Example 31: Intracellular cAMP Levels
The method followed is that published in Yates L, Clark J H, Martin T J, James S, Broadley K J, Kidd E J. Radioligand binding and functional responses of ligands for human recombinant adenosine A3 receptors. Auton Autacoid Pharmacol. 2006 April; 26(2):191-200.
Materials and Cell Culture: Adenosine deaminase was obtained from Roche (Lewes, UK). Forskolin was obtained from Sigma-Aldrich (Poole, UK). The sources of other materials are provided above in Example 1. CHO-K1 cells stably transfected with the human adenosine A3 receptor were grown in Dulbecco's modified Eagles medium with nutrient mixture F12 containing NaHCO3 and Glutamax. Media was supplemented with 10% fetal calf serum, geneticin (G418; 0.67 mg/mL), hygromycin (500 μg/mL) and adenosine deaminase (1 U/mL). Cells were maintained at 37° C. with 5% CO2 in air.
cAMP Measurements: Intracellular cAMP production was measured directly using a non-acetylation cAMP enzyme immunoassay (Amersham Biosciences, Little Chalfont, UK). Cultured CHO cells expressing human adenosine A3 receptors were allowed to plate overnight in 96-well plates in culture medium containing adenosine deaminase. Twenty-four hours later, they were incubated with adenosine analogues or compounds of the invention (0.1 nM-1 μM) for 5 min at 37° C., followed by incubation with forskolin (10 μM) for 10 min. The cells were then lysed with 200 μL of lysis reagent 1 provided with the kit for 10 min to release intracellular cAMP. Aliquots of the supernatants were then transferred to a 96-well microtitre plate coated with donkey anti-rabbit IgG; 100-μL cAMP standards (12.5-3200 fmol/well) were also added to the microtitre plate; 100 μL of rabbit anti-cAMP antibody was added to all wells and incubated at 2-5° C. for 2 h. The antiserum was made up in lysis reagent 2, which sequesters the key component in lysis reagent 1 and ensures that cAMP is free for subsequent analysis. Then 50 μL of cAMP peroxidase conjugate was added to all wells and left to incubate for 60 min at 2-5° C. to allow competition for the antibody between the un-labelled and horse radish peroxidase (HRP)-labelled cAMP. Wells were then washed with buffer and 150 μL of enzyme substrate containing 3,3′,5,5′-tetramethylbenzidine/hydrogen peroxide in 20% (v/v) dimethylformamide was added to each well and left to incubate for 60 min on a Titramax 100 microtitre plate shaker (Heidolph Instruments, Schwabach, Germany) at room temperature for color development. The reaction was stopped by the addition of 100 μL of 1 M sulfuric acid and the optical density (OD) read at 450 nm on a spectrophotometric MRX microplate reader (Dynex Technologies, Chantilly, VA, USA).
Analyses: Each sample/standard was analyzed in duplicate and the resulting OD values averaged. The percent bound (B/Bo) for each standard and sample was calculated using the following relationship: […]
where B is the specific OD for standard/sample and Bo is the specific OD for the zero standard. A standard curve was generated by plotting % B/Bo as a function of the log fmol cAMP standard per well. The fmol per well value for cAMP in each sample was then read from the graph. The results are expressed as a percent of control agonist response: (measured response/control response)*100 in the presence of the compounds of the invention. Concentration-response curves for inhibition of cAMP production were constructed for all compounds of the invention and reference compounds. The EC50 values (concentration producing a half-maximal response) were determined by non-linear regression analysis of the concentration-response curves generated with mean replicate values using Hill equation curve fitting, according to the equation:
where Y=response, A=left asymptote of the curve, D=right asymptote of the curve, C=compound concentration, and C50=EC50, and nH=slope factor. […]
On the technique in general: cAMP levels reflect the balance of adenylyl cyclase and phosphodiesterase activity.

In another experiment the target is ADORA3 (Homo sapiens (Human), UniProt P0DMS8). The experiment in a line: Intracellular calcium release assay (FLIPR). Type of experiment: cell-based. The settings on record: for pEC50: CHO-K1 cells, Fluo-4, top concentration 10 μM, read-out: Cell Calcium Assay EC50; for Cell Calcium Efficacy (%): percentage of the response to NECA. The procedure:
Example 32: Intracellular Calcium Release Assay
Cell Culture: The table below lists the cell lines used that stably express the 4 subtypes of adenosine receptors, along with the growth medium used for each:
For experiments with the ADORA1- and ADORA3-expressing cells, the medium was aspirated and the cells washed twice with 10 mL DPBS. Two mL of trypsin was added and incubated at 37° C. for 1 minute. Then 10 mL of platting media was added to terminate the digestion and 1 mL of the solution was taken out for cell counting. ADORA2A- and ADORA2B-expressing cells were thawed rapidly in a 37° C. water bath. Cell suspensions were transferred to 50 mL conical tubes. Plating media was added to the 10 mL mark and then 1 mL taken out for cell counting. The 50 mL tubes containing the various types of cells were centrifuged at 1000 g. Then the supernatants were aspirated, being careful not to aspirate the cells. The cell pellets were resuspended in 3-5 mL platting media, then 0.5 mL was taken out for cell counting. Then the cell suspension was diluted to 1×10^6 cells/mL (20,000 cells per 20 μL per well) in platting medium, and cells were seeded into 384-well cell plates (Greiner-781946). The 384-well cell plate was placed in a 37° C./5% CO2 incubator (Thermo-371, Thermo Scientific) for 16-20 hours.
Preparation of the intracellular calcium imaging agent (Fluo-4 Direct™ Calcium Assay Kit, Invitrogen-F10471, Thermo Scientific): One mL of FLIPR Assay Buffer was added to 77 mg probenecid to make a 250 mM solution, which was used fresh for each day. One vial of Fluo-4 Direct™ crystals was thawed and 10 mL of FLIPR Assay Buffer was added to the vial. 0.2 mL of probenecid was added to each 10 mL vial of Fluo-Direct™ solution, such that the final assay concentration was 2.5 mM. It was vortexed, left to stand >5 min and protected from light. The dye was prepared fresh each day.
Compound Preparation: Compound plates were prepared as follows. First, the test compound was diluted to prepare a 2 mM solution and then 10-point 3-fold serial dilutions were made using ECHO (ECHO 555, LabCyte), then 900 nL was transferred to the compound plate. For all targets, the final top concentration of the test compound was […]. For agonist reference compounds, 10-point and 3-fold serial dilutions were made, then 900 nL was transferred to the assay plate. Then 30 μL of assay buffer was added to the compound plate and then the plate was centrifuged at 1000 rpm for 1 min.
FLIPR Assay: Cell plates were removed from the incubator, to which were added 20 μL 2×Fluo-4 Direct™ solution, then the plates were reincubated in a 5% CO2, 37° C. incubator for 50 min and at RT for 10 min. To run the protocol on the Fluorescent Imaging Plate Reader (FLIPR) TETRA (MD-FT0249, Molecular Devices, Inc.), 10 μL of assay buffer was transferred from the 384-well plate (Greiner-781280) to the cell plates and then the fluorescence signal was read. Then 10 μL of compound solution was transferred from the compound plate to the cell plates and the fluorescence signal was read. The “Max-Min” was calculated, starting from Read 91 to the maximum allowed. For agonists, activation %=(RLU−LC)/(HC−LC)*100, based on the following: RLU=relative light unit, 91 to maximum allowed signal; HC=average signal of the high concentration of agonist; LC=average signal of DMSO well. The data were fitted using GraphPad Prism 5, using the model “log(agonist) vs. response—Variable slope” to determine the EC50 value. The receptor efficacy of the test compound relative to the agonist NECA was calculated as a percentage (%) of the response to […]. Table 10 includes EC50 values for compounds described herein.

Sequence of ADORA3 (P0DMS8 whole entry): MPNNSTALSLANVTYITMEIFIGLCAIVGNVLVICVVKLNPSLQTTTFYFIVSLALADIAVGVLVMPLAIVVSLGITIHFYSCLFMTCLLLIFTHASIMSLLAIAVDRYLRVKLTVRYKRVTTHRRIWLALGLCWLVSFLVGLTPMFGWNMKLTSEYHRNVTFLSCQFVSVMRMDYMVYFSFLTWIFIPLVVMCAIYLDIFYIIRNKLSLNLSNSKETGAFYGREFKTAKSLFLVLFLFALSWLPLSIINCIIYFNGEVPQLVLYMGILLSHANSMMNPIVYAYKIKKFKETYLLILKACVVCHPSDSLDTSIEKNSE
T1 sequence (P0DMS8 whole entry): as above

Consider `CNC(=O)[C@@]12C[C@@H]1[C@@H](n1cnc3c(NCC(C)C)cc(Cl)nc31)[C@H](O)[C@@H]2O` [Compound 83, (1S,2R,3S,4R,5S)-4-(5-chloro-7-(isobutylamino)-3H-imidazo[4,5-b]pyridin-3-yl)-2,3-dihydroxy-N-methylbicyclo[3.1.0]hexane-1-carboxamide], for which the pKi in experiment [1] was 8.79.
Take `CCNc1cc(Cl)nc2c1ncn2[C@H]1[C@H](O)[C@H](O)[C@]2(C(=O)NC)C[C@H]12` [Compound 59, (1S,2R,3S,4R,5S)-4-(5-chloro-7-(ethylamino)-3H-imidazo[4,5-b]pyridin-3-yl)-2,3-dihydroxy-N-methylbicyclo[3.1.0]hexane-1-carboxamide]: in experiment [2], the pEC50 was 9.96 and the “CAMP Efficacy (%)” value came to 106.95%. Besides, on ADORA3, the pEC50 was 8.92 and the “Cell Calcium Efficacy (%)” value turned out to be 103.9%.
On the same counts, the results for `CCNc1nc(C#CC2CC2)nc2c1ncn2[C@H]1[C@H](O)[C@H](O)[C@@H]2C[C@@H]21` [Compound 39, (1R,2R,3S,4R,5S)-4-(2-(cyclopropylethynyl)-6-(ethylamino)-9H-purin-9-yl)bicyclo[3.1.0]hexane-2,3-diol] are 9.70, 54.4%, 8.01 and 15.4%.
For the molecule `O[C@@H]1[C@H](O)[C@@H]2C[C@@H]2[C@H]1n1cnc2c(NCC(F)F)nc(C#CC3CC3)nc21` [Compound 38, (1R,2R,3S,4R,5S)-4-(2-(cyclopropylethynyl)-6-((2,2-difluoroethyl)amino)-9H-purin-9-yl)bicyclo[3.1.0]hexane-2,3-diol], in experiment [2], the negative logarithm of the EC50 (pEC50) is 8.74 and the “CAMP Efficacy (%)” value is 65.1%. Moreover, at ADORA3, the pEC50 is 7.84 and the “Cell Calcium Efficacy (%)” value came to 24.7%.
Take `O[C@@H]1[C@H](O)[C@@H]2C[C@@H]2[C@H]1n1cnc2c(NCCF)cc(Cl)nc21` [Compound 41, (1R,2R,3S,4R,5S)-4-(5-chloro-7-((2-fluoroethyl)amino)-3H-imidazo[4,5-b]pyridin-3-yl)bicyclo[3.1.0]hexane-2,3-diol]: on ADORA3, the negative logarithm of the EC50 (pEC50) is 7.44 and the “Cell Calcium Efficacy (%)” value turned out to be 31.3%.
On the same counts, the results for `O[C@@H]1[C@H](O)[C@@H]2C[C@@H]2[C@H]1n1cnc2c(NCC(F)F)cc(C3CC3)nc21` [Compound 78] are 6.96 and 7.2%.

As usually defined, the pKi is −log10 of the Ki, conventionally taken in molar units. What is called pEC50 is the negative decadic logarithm of the EC50, by convention in mol/L.
